Square brackets hold non-standard residues; d marks the D form. Peptide text beside a SMILES is read from it. * marks the point of attachment. X3 = CC(C)C[C@@H](CN1CCC[N+]2=C1CCC2)N*; Pip = O=C(O)[C@@H]1CCCCN1; Iva = CC[C@](C)(N)C(=O)O; Aib = CC(C)(N)C(=O)O; βAla = NCCC(=O)O
What was measured:
[1] = test system: HL-60; test: Antiproliferative activity against human HL-60 cells assessed as reduction in cell viability incubated for 48 hrs by MTT assay; type: functional, cell-based; details: HL-60, 48 h
[2] = test system: A549; test: Antiproliferative activity against human A549 cells assessed as reduction in cell viability incubated for 48 hrs by MTT assay; type: functional, cell-based; details: A549, 48 h
[3] = test system: SMMC-7721; test: Antiproliferative activity against human SMMC-7721 cells assessed as reduction in cell viability incubated for 48 hrs by MTT assay; type: functional, cell-based; details: SMMC-7721, 48 h
[4] = test system: MCF7; test: Antiproliferative activity against human MCF7 cells assessed as reduction in cell viability incubated for 48 hrs by MTT assay; type: functional, cell-based; details: MCF7, 48 h
[5] = test system: SW480; test: Antiproliferative activity against human SW480 cells assessed as reduction in cell viability incubated for 48 hrs by MTT assay; type: functional, cell-based; details: SW480, 48 h
[6] = test system: MDA-MB-231; test: Antiproliferative activity against human MDA-MB-231 cells assessed as reduction in cell viability incubated for 48 hrs by MTT assay; type: functional, cell-based; details: MDA-MB-231, 48 h
[7] = species on record: Bos taurus; test: Inhibition of bovine F0F1-ATPase at 50 uM
[8] = Antiproliferative activity against human U87G cells assessed as reduction in cell viability incubated for 72 hrs by MTT assay; type: functional, cell-based
[9] = test system: HCT-116; test: Antiproliferative activity against human HCT-116 cells assessed as reduction in cell viability incubated for 72 hrs by MTT assay; type: functional, cell-based; details: HCT-116, 72 h
[10] = test system: SNU-398; test: Anticancer activity against human SNU-398 cells expressing high level of SALL4 assessed as reduction in cell viability incubated for 72 hrs by CellTiter-Glo assay; type: functional, cell-based; details: SNU-398, 72 h
[11] = test system: NCI-H292; test: Anticancer activity against human NCI-H292 cells assessed as reduction in cell proliferation incubated for 48 hrs by Calcein AM and Pluronic F-127 staining based fluorescence plate reader analysis; type: functional; details: NCI-H292, 48 h
[12] = Antiproliferative activity against human Keratinocyte assessed as inhibition of cell proliferation incubated for 2 days by Beckman Coulter analysis; type: functional, cell-based; details: 48 h

Row | IC50 [1] [µM] | IC50 [2] [µM] | IC50 [3] [µM] | IC50 [4] [µM] | IC50 [5] [µM] | Structure (SMILES) | other results
1 | > 40 | > 40 | > 40 | > 40 | > 40 | CC[C@H]1O[C@@]2(C)[C@H](OCCC(=O)O)[C@@]1(C)O[C@@H](/C=C/C=C/C=C/c1oc(=O)cc(OC)c1C)[C@@H]2O | –
2 | – | – | – | – | – | CC[C@H]1O[C@@]2(C)[C@H](O)[C@@]1(C)O[C@@H](/C=C/C=C/C=C/c1oc(=O)cc(OC)c1C)[C@@H]2O | IC50 [6]: 8.79 µM
3 | – | – | – | – | – | COc1cc(/C=C/c2ccc(OCCCC[P+](c3ccccc3)(c3ccccc3)c3ccccc3)cc2)cc(OC)c1 | inhibition [7]: > 40%
4 | > 40 | > 40 | > 40 | > 40 | > 40 | CC[C@H]1O[C@@]2(C)[C@H](OC(C)=O)[C@@]1(C)O[C@@H](C(O)C(/C=C/C=C/c1oc(=O)cc(OC)c1C)OC)[C@@H]2O (some centres not stated) | –
5 | – | – | – | – | – | CO[C@H]1[C@H](O[C@@H]2C[C@@H]3C[C@H](O)[C@]4(O)C(=O)O[C@@H](C[C@H](O)[C@@H]5C[C@H](C)[C@H](/C=C\C=C\[C@H](C)C[C@H](C2)O3)O5)[C@H]4O)O[C@@H](C)[C@H](OCCCC=O)[C@H]1OCCCC=O | IC50 [8]: > 3 µM; IC50 [9]: > 3 µM
6 | – | – | – | – | – | CC[C@](C)(NC(=O)[C@@H]1CCCCN1C(=O)C(C)(C)NC(=O)[C@@H]1CCCCN1C(C)=O)C(=O)NC(C)(C)C(=O)N[C@@H](CC(C)C)C(=O)NCCC(=O)NCC(=O)NC(C)(C)C(=O)NC(C)(C)C(=O)N1CCCC[C@H]1C(=O)NC(C)(C)C(=O)N[C@@H](C)C(=O)N[C@@H](CC(C)C)C(=O)NC(C)(C)C(=O)N[C@@H](CC(C)C)CN1CCC[N+]2=C1CCC2 (Ac-[Pip][Aib][Pip][Iva][Aib]L[βAla]G[Aib][Aib][Pip][Aib]AL[Aib]-X3) | IC50 [10]: 0.005 µM
7 | > 40 | > 40 | > 40 | > 40 | > 40 | CC[C@H]1O[C@@]2(C)[C@H](OC(C)=O)[C@@]1(C)O[C@@H](C(O)/C=C/C(/C=C/c1oc(=O)cc(OC)c1C)OC)[C@@H]2O (some centres not stated) | –
8 | – | – | – | – | – | COC[C@@H](C[C@H]1O[C@@](O)(C[C@@H]2C[C@H](OC)CCC/C=C(C)/C=C/[C@@H](O[C@@H]3O[C@@H](C)[C@H](OC)[C@@H](O)[C@@H]3O)[C@H](C)/C=C(C)/C=C(C)/C=C(\C)C(=O)O2)[C@H](C)[C@@H](O)[C@H]1C)O[C@H]1C[C@](C)(O)[C@@H](O[C@H]2C[C@@H](OC)[C@H](O)[C@@H](C)O2)[C@H](C)O1 | IC50 [11]: 0.024 µM
9 | – | – | – | – | – | COC[C@@H](C[C@H]1O[C@@](O)([C@H](O)[C@@H]2C[C@H](OC)CCC/C=C(C)/C=C/[C@@H](O[C@@H]3O[C@@H](C)[C@H](OC)[C@@H](O)[C@@H]3O)[C@H](C)/C=C(C)/C=C(C)/C=C(\C)C(=O)O2)[C@H](C)[C@@H](O)[C@H]1C)O[C@H]1C[C@](C)(O)[C@@H](O[C@H]2C[C@@H](OC)[C@H](O)[C@@H](C)O2)[C@H](C)O1 | IC50 [11]: 0.007 µM
10 | > 40 | > 40 | > 40 | > 40 | > 40 | CC[C@H]1O[C@@]2(C)[C@H](OC(C)=O)[C@@]1(C)O[C@@H](/C=C/C=C/C=O)[C@@H]2O | –
11 | – | – | – | – | – | CN1C(=O)C(Cc2ccccc2-c2ccccc2)N=C(c2ccc(O)cc2)c2cc(Cl)ccc21 (configuration not stated) | EC50 [12]: 2.2 µM
12 | > 40 | > 40 | 18.3 | > 40 | 14.4 | CC[C@H]1O[C@@]2(C)[C@H](OC(C)=O)[C@@]1(C)O[C@@H](C(O)/C=C/C(O)/C=C/c1oc(=O)cc(OC)c1C)[C@@H]2O (some centres not stated) | –
13 | – | – | – | – | – | CC[C@](C)(NC(=O)[C@H](CC(C)C)NC(=O)[C@H](C)NC(=O)C(C)(C)NC(=O)[C@@H]1CCCCN1C(=O)C(C)(C)NC(=O)C(C)(C)NC(=O)CNC(=O)CCNC(=O)[C@H](CC(C)C)NC(=O)[C@](C)(CC)NC(=O)[C@](C)(CC)NC(=O)[C@@H]1CCCCN1C(=O)C(C)(C)NC(=O)[C@@H]1CCCCN1C(C)=O)C(=O)N[C@@H](CC(C)C)CN1CCC[N+]2=C1CCC2 (Ac-[Pip][Aib][Pip][Iva][Iva]L[βAla]G[Aib][Aib][Pip][Aib]AL[Iva]-X3) | IC50 [10]: 0.006 µM
14 | – | – | – | – | – | CN1C(=O)C(Cc2ccc3ccccc3c2)N=C(c2ccc3[nH]c(=O)[nH]c3c2)c2cc(Cl)ccc21 (configuration not stated) | EC50 [12]: 2.1 µM
15 | – | – | – | – | – | COC[C@@H](C[C@H]1O[C@@](O)(C[C@@H]2C[C@H](OC)CCC/C=C(C)/C=C/[C@@H](O[C@@H]3O[C@@H](C)[C@@H](OC)[C@@H](O)[C@@H]3O)[C@H](C)/C=C(C)/C=C(C)/C=C(\C)C(=O)O2)[C@H](C)[C@@H](O)[C@H]1C)O[C@H]1C[C@](C)(O)[C@@H](O[C@H]2C[C@@H](OC)[C@H](O)[C@@H](C)O2)[C@H](C)O1 | IC50 [11]: < 0.1 µM
16 | – | – | – | – | – | CC(=O)Oc1ccc(/C=C/c2cc(OCCCC[P+](c3ccccc3)(c3ccccc3)c3ccccc3)cc(OC(C)=O)c2)cc1 | inhibition [7]: > 40%

— ChEMBL document CHEMBL5230122, “Natural products and other inhibitors of F1FO ATP synthase” (Eur J Med Chem, 2020)
